Broadly, the EC50 is the midpoint of the concentration-response curve. In general, IC50 refers to the concentration that gives 50% inhibition.

Drawing on patent publication US20120184562A1, “1,6- AND 1,8-NAPHTHYRIDINES” (priority 2011, published 2012), this text covers EC50 and IC50 for nine molecules.

Assay [1] concerns SW620 human colon cancer cells. Description: SW620 Cell Viability Assay. Format: cell-based. Conditions: SW-620, 96 h, 4 days incubation, CellTiter-Glo Luminescent Cell Viability Assay, read-out: Cellular EC50 (μM) SW620. The protocol: SW620 Cell Viability Assay
1. Cell Plate Preparation: SW620 human colon cancer cells (known to express DYRK1B), obtained from ATCC, were seeded into 96-well plates at 3×10^3 cells/well in 50 μL of media. • Harvested the required number of cells (counts & viability determined by Guava Viacount). • Centrifuge cells to pellet and removed supernant. • Resuspended in growth media (50 μL/well) & pipetted thoroughly to break up clumps. • Setup for ˜100 wells/plate, therefore, VT=5 mL/plate @ […]. 1A. Some cells (S—) were allowed to attach for 24 hrs, serum starved for 48 hrs, and then followed with drug treatments. Test compound solution were prepared in regular corresponding media supplemented with serum. 2. Test Compound Preparation: Test compounds were solubilized in either DMSO or media and prepared at various stock concentrations. • All compounds were incubated at 37° C. for 30 minutes and vortexed. • (5 mM stocks of test compound were prepared for non-soluble compounds)
• The 10 mM test compound stock was diluted to a concentration of 100× the final Cmax concentration. • Then the test compound stock is diluted 50-fold in media and/or second compound for a final Cmax concentration in the test compound plate. • The Cmax in the test compound plate (2% DMSO) is 2-fold higher than the final Cmax in the cell plate (60 uL titrations were 1:3). 4. Viability Assay: This assay was performed as follows: • Transfer 50 μL of test compound solution per well from the test compound plate onto the cell plate prepared in Step #1. • Mix the plate with treated cells by pipetting up and down three times with 200 μL multi-channel pipette. • Incubate the cells in 5% CO2 incubator @ 37° C. for 4 days. • Run the CellTiter-Glo™ Luminescent Cell Viability Assay.
The results of this assay, given as EC50 values, indicate the concentration of test compound that inhibits tumor cell proliferation by 50%.

For a further assay, the target named is T1, Human DYRK1B (Homo sapiens, UniProt Q9Y463).
T1 construct: purchased Invitrogen PR8350B (former PV4649)
Description: DYRK1B Kinase TR-FRET (IMAP-Tb) Assay. The format is biochemical. Conditions: TR-FRET (IMAP-Tb); ATP 70 μM; 37° C., 60 minutes; average of multiple runs; read-out: Enzyme IC50 (μM) DYRK1B. An excerpt: DYRK1B Kinase TR-FRET (IMAP-Tb) Assay The kinase TR-FRET (IMAP-Tb) assay uses a fluorescence labeled substrate peptide in the kinase reaction. Upon phosphorylation by the kinase, phosphopeptide is produced, which will be detected by the binding solution provided in IMAP TR-FRET binding kit. After the completion of the kinase reaction, the reaction will be stopped by adding the binding solution containing terbium tracer. This tracer is immobilized on the surface of the IMAP beads, which also contain metal ions on the beads that bind to the phospho-groups of the products. Thus the phosphorylated product of the reaction can enter into close proximity to the tracer, producing resonance energy transfer. Due to the long lifetime of terbium (Tb) fluorescence the detection can be run in time resolved mode, which virtually eliminates fluorescence interference from assay components or compounds. The TR-FRET signal measurement from this assay, given as an IC50 measurement, is a measure of a test compound's ability to interfere with the phosphorylation of the peptide substrate, that is it inhibits the phosphorylation of the substrate peptide by DYRK1B, and is thus a measure of the test compound's ability to inhibit the activity of DYRK1B. […] Human DYRK1B: from Invitrogen. Part #PR8350B (former PV4649) • 2. Substrate Peptide: in-house synthesized: RRRFRPASPLRGPPK • 3. IMAP TR-FRET IPP Explorer Kit: from Molecular Devices. Part #R8157 • 4. Kinase Assay Buffer (KAB): 10 mM HEPES pH 7.0, 50 mM NaCl, 5 mM MgCl2, 1 mM DTT, 1 mM NaVO4, 200 μg/mL BSA (0.02%) • 5. Assay Plate: Remp polypropylene clear 384-well microplate. Cat#23490-102 • 6. Detection Plate: Costa black 384-well microplate. Cat #3710 Assay Procedure: This assay was performed as follows: • 1. Transfer 1.5 μL of 20× compound solution to each well of an assay plate. • 2. Add to each well 22.5 μL of KAB Buffer. • 3. Add to each well 3 μL of the solution of DYRK1B and ATP. […] Add to each well 3 μL of the substrate peptide. The assay concentration is 1.0 μM • 5. Incubate the assay plates at 37° C. for 60 minutes. • 6. Add 18 μL of Detection Solution (1:800 diluted Progress bead stock, 1:400 diluted Tb stock, 80% Buffer A, and 20% Buffer B) into each well of detection plates. • 7. Transfer 6 μL of assay solution from the assay plate to the detection plate. • 8. Shake detection plates for 30 minutes. • 9. Read plates in Envision with wavelength set at excitation 340 nm for Tb, emission 490 nm, and […] 520 nm. • 10. Calculation: TR-FRET Signal=(Reading at […]/Reading at 490 nM)×2000000

In the next assay the target is T2, Human DYRK1A (Homo sapiens, UniProt Q13627).
T2 construct: purchased Invitrogen PV3997
The experiment in a line: DYRK1A Kinase TR-FRET (IMAP-Tb) Assay. The format is biochemical. Conditions: TR-FRET (IMAP-Tb); ATP 70 μM; 37° C., 60 minutes; average of multiple runs; read-out: Enzyme IC50 (μM) DYRK1A. An excerpt: DYRK1A Kinase TR-FRET (IMAP-Tb) Assay
The kinase TR-FRET (IMAP-Tb) assay uses a fluorescence labeled substrate peptide in the kinase reaction. Upon phosphorylation by the kinase, phosphopeptide is produced, which will be detected by the binding solution provided in IMAP TR-FRET binding kit. After the completion of the kinase reaction, the reaction will be stopped by adding the binding solution containing terbium tracer. This tracer is immobilized on the surface of the IMAP beads, which also contain metal ions on the beads that bind to the phospho-groups of the products. Thus the phosphorylated product of the reaction can enter into close proximity to the tracer, producing resonance energy transfer. Due to the long lifetime of terbium (Tb) fluorescence the detection can be run in time resolved mode, which virtually eliminates fluorescence interference from assay components or compounds.
The TR-FRET signal measurement from this assay, given as an IC50 measurement, is a measure of a test compound's ability to interfere with the phosphorylation of the peptide substrate, that is it inhibits the phosphorylation of the substrate peptide by DYRK1A, and is thus a measure of the test compound's ability to inhibit the activity of DYRK1A.
• 1. Human DYRK1A: from Invitrogen. Part #PV3997 • 2. Substrate Peptide: […] • 3. IMAP TR-FRET IPP Explorer Kit: from Molecular Devices. Part #R8157 • 4. Kinase Assay Buffer (KAB): 10 mM HEPES pH 7.0, 50 mM NaCl, 5 mM MgCl2, 1 mM DTT, 1 mM NaVO4, 200 μg/mL BSA (0.02%) • 5. Assay Plate: Remp polypropylene clear 384-well microplate. […] Detection Plate: Costa black 384-well microplate. […] Transfer 1.5 μL of 20× compound solution to each well of an assay plate. • 2. Add to each well 22.5 μL of KAB Buffer. • 3. Add to each well 3 μL of the solution of DYRK1A and ATP. […] Add to each well 3 μL of the substrate peptide. The assay concentration is 1.0 μM • 5. Incubate the assay plates at 37° C. for 60 minutes. • 6. Add 18 μL of Detection Solution (1:800 diluted Progress bead stock, 1:400 diluted Tb stock, 80% Buffer A, and 20% Buffer B) into each well of detection plates. • 7. Transfer 6 μL of assay solution from the assay plate to the detection plate. • 8. Shake detection plates for 30 minutes. • 9. Read plates in Envision with wavelength set at excitation 340 nm for Tb, emission 490 nm, and […].
A general note: TR-FRET usually uses a lanthanide donor and a delayed reading to cut background.

Structures can show the parent of a compound that is named as a salt.

T1 sequence (Q9Y463 whole entry): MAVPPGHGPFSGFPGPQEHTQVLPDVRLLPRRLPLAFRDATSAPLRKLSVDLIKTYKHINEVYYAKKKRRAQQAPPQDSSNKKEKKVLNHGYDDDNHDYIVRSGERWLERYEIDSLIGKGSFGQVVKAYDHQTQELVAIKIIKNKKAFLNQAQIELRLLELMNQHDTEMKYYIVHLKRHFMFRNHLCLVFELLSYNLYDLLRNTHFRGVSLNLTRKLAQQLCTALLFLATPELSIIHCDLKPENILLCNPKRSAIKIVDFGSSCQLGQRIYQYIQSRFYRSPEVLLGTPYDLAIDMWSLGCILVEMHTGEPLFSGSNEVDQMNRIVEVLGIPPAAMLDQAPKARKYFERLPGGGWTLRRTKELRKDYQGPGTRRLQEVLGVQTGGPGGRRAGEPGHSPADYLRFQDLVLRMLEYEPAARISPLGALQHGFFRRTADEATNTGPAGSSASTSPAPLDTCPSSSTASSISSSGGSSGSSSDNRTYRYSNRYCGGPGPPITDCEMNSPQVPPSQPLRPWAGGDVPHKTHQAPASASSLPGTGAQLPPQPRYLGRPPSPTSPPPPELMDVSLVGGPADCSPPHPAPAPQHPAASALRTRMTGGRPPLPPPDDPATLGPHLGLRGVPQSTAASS

With `COc1cc2[nH]c(=O)c(C(=O)Nc3cc(C(=O)NC(CN)c4cccc(Cl)c4)ccc3C)cc2cn1` (stereo not drawn) [Example 57, 7-Methoxy-2-oxo-1,2-dihydro-[1,6]naphthyridine-3-carboxylic acid {5-[2-amino-1-(3-chloro-phenyl)-ethylcarbamoyl]-2-methyl-phenyl}-amide; hydrochloride], in assay [1], the concentration for a half-maximal effect (EC50) turned out to be 0.496 µM. In addition, the results for the IC50 on Human DYRK1B and on Human DYRK1A were 0.146 µM and 0.0512 µM, respectively.

As for `COc1cc2[nH]c(=O)c(C(=O)Nc3cc(C(=O)NC(CN)c4ccsc4)ccc3C)cc2cn1` (stereo not drawn) [Example 59, 7-Methoxy-2-oxo-1,2-dihydro-[1,6]naphthyridine-3-carboxylic acid [5-(2-amino-1-thiophen-3-yl-ethylcarbamoyl)-2-methyl-phenyl]-amide; hydrochloride], in assay [1], the EC50 stood at 0.299 µM. Further, the half-inhibitory concentration (IC50) at Human DYRK1B is 0.0308 µM; on Human DYRK1A, 0.0113 µM.

In the case of `COc1cc2[nH]c(=O)c(C(=O)Nc3cc(C(=O)NC(CCN)c4ccccc4)ccc3C)cc2cn1` (stereo not drawn) [Example 61, 7-Methoxy-2-oxo-1,2-dihydro-[1,6]naphthyridine-3-carboxylic acid [5-(3-amino-1-phenyl-propylcarbamoyl)-2-methyl-phenyl]-amide; hydrochloride], in assay [1], the half-maximal effective concentration (EC50) was found to be 2.27 µM. Besides, the IC50 on Human DYRK1B came out at 0.155 µM; on Human DYRK1A it was 0.034 µM.

With `COc1cc2[nH]c(=O)c(C(=O)Nc3cc(C(=O)NC(CCN)c4ccsc4)ccc3C)cc2cn1` (stereo not drawn) [Example 63, 7-Methoxy-2-oxo-1,2-dihydro-[1,6]naphthyridine-3-carboxylic acid [5-(3-amino-1-thiophen-3-yl-propylcarbamoyl)-2-methyl-phenyl]-amide], the EC50 in assay [1] stood at 0.205 µM. The half-maximal inhibitory concentration (IC50) on Human DYRK1B was determined as 0.023 µM; at Human DYRK1A, 0.0046 µM.

Turning to `COc1cc2[nH]c(=O)c(C(=O)Nc3cc(C(=O)NC(CCN)c4cccc(Cl)c4)ccc3C)cc2cn1` (stereo not drawn) [Example 65, 7-Methoxy-2-oxo-1,2-dihydro-[1,6]naphthyridine-3-carboxylic acid {5-[3-amino-1-(3-chloro-phenyl)-propylcarbamoyl]-2-methyl-phenyl}-amide; hydrochloride], the 50% effective concentration (EC50) in assay [1] amounted to 0.915 µM. In addition, the IC50 amounted to 0.21 µM on Human DYRK1B and 0.0974 µM at Human DYRK1A.

Take `COc1cc2[nH]c(=O)c(C(=O)Nc3cc(C(=O)NC(CCN)c4cccc(Cl)c4)ccc3Cl)cc2cn1` (stereo not drawn) [Example 67, 7-Methoxy-2-oxo-1,2-dihydro-[1,6]naphthyridine-3-carboxylic acid {5-[3-amino-1-(3-chloro-phenyl)-propylcarbamoyl]-2-chloro-phenyl}-amide; hydrochloride]: the 50% effective concentration (EC50) in assay [1] stood at 0.103 µM. Further, the 50% inhibitory concentration (IC50) on Human DYRK1B came to 0.0854 µM; on Human DYRK1A, 0.00952 µM.

For the molecule `COc1cc2[nH]c(=O)c(C(=O)Nc3cc(C(=O)NC(CCN)c4ccccc4)ccc3Cl)cc2cn1` (stereo not drawn) [Example 69, 7-Methoxy-2-oxo-1,2-dihydro-[1,6]naphthyridine-3-carboxylic acid [5-(3-amino-1-phenyl-propylcarbamoyl)-2-chloro-phenyl]-amide; hydrochloride], the half-maximal effective concentration (EC50) in assay [1] came to 0.256 µM. Besides, the IC50 came out at 0.0137 µM on Human DYRK1B and 0.0124 µM on Human DYRK1A.

Regarding `COC(=O)c1ccc(Cl)c(NC(=O)c2cc3cnc(N4CCN(C)CC4)cc3[nH]c2=O)c1` [Example 73, 4-Chloro-3-{[7-(4-methyl-piperazin-1-yl)-2-oxo-1,2-dihydro-[1,6]naphthyridine-3-carbonyl]-amino}-benzoic acid methyl ester], the half-maximal effective concentration (EC50) in assay [1] was above 10 µM. In addition, the IC50 came out at 0.96 µM on Human DYRK1B and 0.425 µM at Human DYRK1A.

For `COC(=O)c1ccc(Cl)c(NC(=O)c2cc3ccc(N4CCN(C)CC4)nc3[nH]c2=O)c1` [Example 88, 4-Chloro-3-{[7-(4-methyl-piperazin-1-yl)-2-oxo-1,2-dihydro-[1,8]naphthyridine-3-carbonyl]-amino}-benzoic acid methyl ester], the concentration for a half-maximal effect (EC50) in assay [1] came out at 1.53 µM. Also, the IC50 at Human DYRK1B is 0.513 µM; on Human DYRK1A, 0.451 µM.
